Measured values reported in ChEMBL document CHEMBL1201862, “PubChem BioAssay data set” (2004).
Calls of active or inactive are those of the source.

Assays:
[1] = molecular target: Glyceraldehyde-3-phosphate dehydrogenase (Homo sapiens, UniProt P04406)
[2] = molecular target: T1, Alkaline phosphatase, tissue-nonspecific isozyme (Homo sapiens, UniProt P05186); assay: potency against alkaline phosphatase TNAP – biochemical, luminescent, dose response, SAR follow-up (AID 1056)
T1 sequence (P05186 whole entry): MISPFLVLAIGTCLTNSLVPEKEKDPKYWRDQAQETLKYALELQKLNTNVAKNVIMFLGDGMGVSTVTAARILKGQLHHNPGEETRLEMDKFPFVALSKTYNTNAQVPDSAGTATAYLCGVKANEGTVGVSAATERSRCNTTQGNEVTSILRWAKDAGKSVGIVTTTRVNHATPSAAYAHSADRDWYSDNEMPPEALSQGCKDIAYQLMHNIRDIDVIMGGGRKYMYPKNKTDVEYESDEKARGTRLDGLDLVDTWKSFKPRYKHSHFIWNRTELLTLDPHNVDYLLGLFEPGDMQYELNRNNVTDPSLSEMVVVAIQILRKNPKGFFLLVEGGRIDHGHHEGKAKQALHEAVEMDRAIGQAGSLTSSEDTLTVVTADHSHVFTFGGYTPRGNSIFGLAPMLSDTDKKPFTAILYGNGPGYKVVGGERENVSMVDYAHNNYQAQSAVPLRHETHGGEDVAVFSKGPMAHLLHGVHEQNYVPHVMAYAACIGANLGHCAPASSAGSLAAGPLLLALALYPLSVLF

[3] = molecular target: Peroxisome proliferator-activated receptor gamma/Nuclear receptor coactivator 1 (Homo sapiens, UniProt P37231); assay: (§1) TR-FRET dose response biochemical High Throughput Screening assay for agonists of the steroid receptor coactivator 1 (SRC-1) recruitment by the peroxisome proliferator-activated receptor gamma (PPAR gamma): non-selective agonists. [Related pubchem assays (depositor defined):AID1300, AID1808, AID504735, AID631]; type: protein assay
[4] = molecular target: Peroxisome proliferator-activated receptor gamma/Nuclear receptor coactivator 3 (Homo sapiens, UniProt P37231); assay: as §1, with “3 (SRC-3)” for “1 (SRC-1)”, “assays: 1301 (Confirmation screen.), 1048 (Primary screen.)]” for “assays (depositor defined):AID1300, AID1808, AID504735, AID631]”; type: functional
[5] = molecular target: Peroxisome proliferator-activated receptor gamma/Nuclear receptor coactivator 2 (Homo sapiens, UniProt P37231); assay: TR-FRET dose response biochemical High Throughput Screening assay for agonists of the steroid receptor coactivator 2 (SRC-2) recruitment by the peroxisome proliferator-activated receptor gamma (PPAR gamma): non-selective agonists. [Related pubchem assays: 1297, 1032 ]; type: functional
[6] = molecular target: DNA dC->dU-editing enzyme APOBEC-3A (Homo sapiens, UniProt P31941); assay: A3A deaminase inhibition for selectivity – biochemical, dose response (AID 504722); type: functional
[7] = molecular target: DNA dC->dU-editing enzyme APOBEC-3G (Homo sapiens, UniProt Q9HC16); assay: Dose Response confirmation of small molecule APOBEC3G DNA Deaminase Inhibitors via a fluorescence-based single-stranded DNA deaminase assay. [Related pubchem assays (depositor defined):AID493012, AID493028]; type: functional
[8] = molecular target: T2, Polyadenylate-binding protein 1 (Homo sapiens, UniProt P11940); assay: MLLE binding blockers, Cy5 peptide tracer – biochemical, fluorescence polarization, Cy5-PAM2 peptide, secondary, miRNA deadenylation inhibitor project, dose response (AID 602260); type: functional; conditions: read-out: IC50_Mean
[9] = molecular target: T2, Polyadenylate-binding protein 1; assay: MLLE domain peptide-binding blockers, IC50 – biochemical, fluorescence polarization, FITC-PAM2 peptide, dose response (AID 602259); type: functional; conditions: read-out: IC50_Mean
[10] = molecular target: T3, Adenosylmethionine-8-amino-7-oxononanoate aminotransferase (Mycobacterium tuberculosis, UniProt P9WQ81); assay: Mycobacterium tuberculosis BioA enzyme inhibitor Measured in Biochemical System Using Plate Reader - 2163-02_Inhibitor_Dose_CherryPick_Activity.; type: functional, Mycobacterium tuberculosis UT205
T3 sequence (P9WQ81 whole entry): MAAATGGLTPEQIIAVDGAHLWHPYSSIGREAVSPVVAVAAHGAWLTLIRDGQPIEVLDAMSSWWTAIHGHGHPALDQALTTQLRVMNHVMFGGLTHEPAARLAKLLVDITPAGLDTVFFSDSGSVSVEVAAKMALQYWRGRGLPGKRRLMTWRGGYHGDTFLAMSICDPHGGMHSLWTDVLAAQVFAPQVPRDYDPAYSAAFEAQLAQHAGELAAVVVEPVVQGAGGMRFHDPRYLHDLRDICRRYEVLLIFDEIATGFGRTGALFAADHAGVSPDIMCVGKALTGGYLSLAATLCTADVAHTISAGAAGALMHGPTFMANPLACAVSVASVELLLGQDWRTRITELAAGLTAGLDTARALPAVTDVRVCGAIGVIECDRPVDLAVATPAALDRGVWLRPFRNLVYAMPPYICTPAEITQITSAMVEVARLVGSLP

[11] = molecular target: DNA (cytosine-5)-methyltransferase 1 (Homo sapiens, UniProt P26358); assay: inhibition of DNA methylation by DNMT1 – biochemical, fluorescent molecular beacon, confirmation (AID 602386); type: functional
[12] = molecular target: T4, Ubiquitin-conjugating enzyme E2 N (Homo sapiens, UniProt P61088); type: functional;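 note: Dose-response confirmation in a TR-FRET assay detecting UBC13-driven polyubiquitin chain formation, inhibition measured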
T4 sequence (P61088 whole entry): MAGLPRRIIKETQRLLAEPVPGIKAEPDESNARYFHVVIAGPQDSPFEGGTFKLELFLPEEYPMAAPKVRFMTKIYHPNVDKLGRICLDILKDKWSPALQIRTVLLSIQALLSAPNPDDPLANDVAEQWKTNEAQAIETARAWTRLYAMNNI

Major prion protein = Major prion protein (Homo sapiens, UniProt P04156); type: functional, cell-based
[13] = molecular target: T5, Short transient receptor potential channel 4 (Mus musculus, UniProt Q9QUQ5); assay: calcium entry via TRPC4 opening agents – cell-based, HEK293 TRPC4/mu-opioid, Fluo-4 calcium, dose response (AID 434937); type: functional
T5 sequence (Q9QUQ5 whole entry): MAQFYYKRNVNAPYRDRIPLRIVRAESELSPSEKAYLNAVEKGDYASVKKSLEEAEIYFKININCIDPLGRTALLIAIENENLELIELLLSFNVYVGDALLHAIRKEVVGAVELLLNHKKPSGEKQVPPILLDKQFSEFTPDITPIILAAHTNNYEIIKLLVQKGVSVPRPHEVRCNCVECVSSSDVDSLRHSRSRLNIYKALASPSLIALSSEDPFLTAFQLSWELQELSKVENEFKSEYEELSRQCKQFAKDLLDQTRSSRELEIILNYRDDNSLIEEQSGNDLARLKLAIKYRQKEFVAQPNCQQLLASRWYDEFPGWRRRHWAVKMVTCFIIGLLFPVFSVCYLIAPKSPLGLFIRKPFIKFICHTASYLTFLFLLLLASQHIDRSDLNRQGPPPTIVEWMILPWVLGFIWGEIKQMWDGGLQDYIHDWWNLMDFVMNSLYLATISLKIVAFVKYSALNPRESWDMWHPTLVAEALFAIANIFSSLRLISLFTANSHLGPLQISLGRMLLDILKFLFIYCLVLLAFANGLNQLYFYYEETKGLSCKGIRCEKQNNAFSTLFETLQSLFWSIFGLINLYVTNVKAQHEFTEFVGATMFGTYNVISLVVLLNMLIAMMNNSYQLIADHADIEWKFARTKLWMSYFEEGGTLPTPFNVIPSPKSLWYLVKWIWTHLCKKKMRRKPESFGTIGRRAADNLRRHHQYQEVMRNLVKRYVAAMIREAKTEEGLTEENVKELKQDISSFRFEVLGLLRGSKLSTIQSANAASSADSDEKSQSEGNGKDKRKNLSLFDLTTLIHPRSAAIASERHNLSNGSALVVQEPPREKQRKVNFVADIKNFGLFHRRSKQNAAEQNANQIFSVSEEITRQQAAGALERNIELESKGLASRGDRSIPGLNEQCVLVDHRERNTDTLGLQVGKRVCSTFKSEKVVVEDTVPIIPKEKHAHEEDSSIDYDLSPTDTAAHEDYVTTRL

[14] = luciferase reporter signal suppression in cells – H4 neuroglioma cells, luminescence, dose response (AID 1990); type: functional, cell-based
[15] = Luminescence Cell-Based Dose Response HTS to Identify Inhibitors of 5'UTR Stem-Loop Driven Prion Protein mRNA Translation in H4 Neuroglioblastoma Cells. [Related pubchem assays: 1827 (Project Summary), 1813 (Primary HTS)]; type: functional
[16] = alpha-synuclein stem-loop luciferase translation blockers – H4 neuroglioma cells, luminescence, confirmation (AID 1988); type: functional, cell-based
[17] = reduction of Shn3 3'UTR-driven luciferase in osteoblasts – cell-based, Clone20 osteoblasts, firefly luciferase, cherry-picked, dose response (AID 624132); type: functional;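 note: firefly luciferase luminescence from reporter carrying the Shn3 3'UTR in osteoblasts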
[18] = loss of viability in HepG2 cells – cell-based, CellTiter-Glo, cherry-picked, cytotoxicity control for Shn3 inhibitor project, dose response (AID 624134); type: functional
[19] = non-specific 3'UTR reporter inhibition in Clone20-Shn3RL – cell-based, Renilla luciferase, cherry-picked, counter-screen for Shn3 inhibitor project, dose response (AID 624133); type: functional
[20] = Fluorescence-based cell-based high throughput dose response assay for inhibitors of the interaction of nucleotide-binding oligomerization domain containing 2 (NOD2) and the receptor-interacting serine-threonine kinase 2 (RIPK2).; type: functional; conditions: Homo sapiens
[21] = molecular target: SWI/SNF-related matrix-associated actin-dependent regulator of chromatin subfamily A member 2 (Homo sapiens, UniProt P51531); assay: Luminescence-based cell-based high throughput dose response assay to identify activators of the function of SWI/SNF related, matrix associated, actin dependent regulator of chromatin, subfamily a, member 2 (SMARCA2, BRM).; type: functional
[22] = Counterscreen for activators of the function of SWI/SNF related, matrix associated, actin dependent regulator of chromatin, subfamily a, member 2 (SMARCA2, BRM): Luminescence-based cell-based high throughput dose response assay to identify non-selective compounds using the VP16 reporter assay.; type: functional
[23] = molecular target: T6, DNA repair protein RAD52 homolog (Homo sapiens, UniProt P43351); type: functional, biochemical
T6 sequence (P43351 whole entry): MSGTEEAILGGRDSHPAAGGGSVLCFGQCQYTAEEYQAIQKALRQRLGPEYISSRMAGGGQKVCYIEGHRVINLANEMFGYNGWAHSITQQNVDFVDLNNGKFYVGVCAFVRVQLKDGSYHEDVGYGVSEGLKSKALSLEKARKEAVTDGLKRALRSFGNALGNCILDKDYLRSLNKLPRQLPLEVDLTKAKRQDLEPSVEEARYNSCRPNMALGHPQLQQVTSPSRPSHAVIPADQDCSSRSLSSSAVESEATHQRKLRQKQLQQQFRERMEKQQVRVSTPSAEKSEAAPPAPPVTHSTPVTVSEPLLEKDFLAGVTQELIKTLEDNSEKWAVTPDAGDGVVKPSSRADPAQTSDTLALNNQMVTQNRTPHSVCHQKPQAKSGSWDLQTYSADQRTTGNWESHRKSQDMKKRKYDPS

[24] = molecular target: T7, Carboxy-terminal domain RNA polymerase II polypeptide A small phosphatase 1 (Homo sapiens, UniProt Q9GZU7); assay: CTDSP1 inhibitors, concentration-response, biochemical, absorbance readout, ultra-high-throughput screen actives (AID 540297); type: functional
T7 sequence (Q9GZU7 whole entry): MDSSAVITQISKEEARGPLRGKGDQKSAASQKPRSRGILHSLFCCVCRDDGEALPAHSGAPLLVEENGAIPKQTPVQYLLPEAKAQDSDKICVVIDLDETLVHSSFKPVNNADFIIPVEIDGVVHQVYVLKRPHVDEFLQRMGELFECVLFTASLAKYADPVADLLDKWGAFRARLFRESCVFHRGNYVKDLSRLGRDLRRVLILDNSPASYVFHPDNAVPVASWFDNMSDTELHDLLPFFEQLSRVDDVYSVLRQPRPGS

## CCOc1ccc(C(C)C)cc1S(=O)(=O)Nc1cccnc1
[1]
  IC50: > 100 µM (not active)
[2]
  IC50: 3.52 µM (active)

## Fc1ccc(COc2cccc(-c3nnc(S)o3)c2)cc1
[3]
  EC50: 9.44 µM (active)
[4]
  EC50: > 79.4 µM (not active)
[5]
  EC50: 8.05 µM (active)

## O=S(=O)(c1ccc(=S)[nH]c1)N1CCOCC1
[6]
  IC50: > 100 µM (inactive)
[7]
  IC50: 12.6 µM (active)
[8]
  IC50: > 66 µM (inactive)
[9]
  IC50: > 66 µM (inactive)

## O=C(Nc1ccc(NS(=O)(=O)c2ccccc2)cc1)c1cccnc1
[10]
  AC50: 5.75 µM (active)

## CCOC(=O)C1CCCN(C(=O)c2cc(-c3ccco3)nc3ccccc23)C1 (stereo not given)
[11]
  IC50: 6.42 µM (active)

## O=C(Cc1cccs1)NCCSc1c(-c2ccc(Cl)cc2)[nH]c2ccccc12
[3]
  EC50: 12.3 µM (inactive)
[4]
  EC50: > 2.94 µM (active)
[5]
  EC50: 15.6 µM (not active)

## O=C1CCCc2c1cc(C(=O)NCCCN1CCOCC1)c(=O)n2-c1ccc(Cl)cc1
[10]
  AC50: 10.1 µM (active)

## Sc1[nH]cnc2c3ccccc3nc1-2
[6]
  IC50: > 100 µM (inactive)
[12]
  IC50: > 20 µM (inactive)
[7]
  IC50: 3.65 µM (active)
Major prion protein
  IC50: 1.5 µM (active)
cells
  IC50: > 138 µM (inactive)

## CC(C)c1ccc(NC(=S)N(C)CCc2ccccn2)cc1
[13]
  EC50: 5.96 µM (active)

## COc1ccc(OC)c2sc(N(CCN(C)C)C(=O)/C=C/c3cccs3)nc12
[14]
  EC50: 8.13 µM (active)
[15]
  EC50: 3.18 µM (active)
[16]
  EC50: 6.88 µM (active)
[17]
  AC50: 12.8 µM (active)
[18]
  AC50: 19.1 µM (active)
[19]
  AC50: 25.8 µM (active)
[20]
  IC50: 13.3 µM (inactive)
[21]
  EC50: > 91.1 µM (inactive)
[22]
  EC50: > 91.1 µM (inactive)
[23]
  AC50: 10.6 µM (active)

## Fc1ccc(C(c2nnnn2Cc2cccs2)N2CCN(C3CCCCC3)CC2)cc1 (stereo not given)
[13]
  EC50: 1.19 µM (active)

## CCOC(=O)C1CCN(C(=O)Nc2ccc3snnc3c2)CC1
[10]
  AC50: 0.85 µM (active)

## CCCCN(CC)CCNC(=O)c1cc2c(C)nc3ccccc3c2o1
[13]
  EC50: 0.944 µM (active)

## c1cncc(-c2nnn[nH]2)c1
[1]
  IC50: > 100 µM (not active)
[2]
  IC50: > 100 µM (inactive)

## COC(=O)c1sccc1-c1ccc(/C=N/OC(=O)c2ccccc2)o1
[3]
  EC50: 12.2 µM (inactive)
[4]
  EC50: > 79.4 µM (not active)
[5]
  EC50: 12.7 µM (not active)

## COc1ccc(/C(C)=N/NC(=O)CNC(=O)/C=C\c2ccco2)cc1
[24]
  IC50: 6.67 µM (active)
